Measured values taken from ChEMBL document CHEMBL5236586, “Novel ginsenoside derivatives induce apoptosis in HepG-2 cells via the MDM2-p53 signaling pathway” (Bioorg Med Chem Lett, 2022).

Key:
A549 = test: Antiproliferative activity against human A549 cells assessed as inhibition of cell proliferation by MTT assay; type: functional, cell-based
HepG2 = test: Antiproliferative activity against human HepG2 cells assessed as inhibition of cell proliferation by MTT assay; type: functional, cell-based
PC-3 = test: Antiproliferative activity against human PC-3 cells assessed as inhibition of cell proliferation by MTT assay; type: functional, cell-based
[1] = Cytotoxicity against mouse L929 cells assessed as inhibition of cell proliferation by MTT assay; type: toxicity, cell-based

| SMILES | IC50 (A549) | IC50 (HepG2) | IC50 (PC-3) | IC50 [1] |
| --- | --- | --- | --- | --- |
| CC1(C)CCC[C@](C)([C@@H]2CC[C@]3(C)[C@@H]2[C@H](O)C[C@H]2[C@@]4(C)CC[C@H](O)C(C)(C)[C@@H]4CC[C@]23C)O1 | 58.4 µM | 59.2 µM | 68.3 µM | > 100 µM |
| COc1ccc(-c2nc(SCC(=O)O[C@H]3CC[C@@]4(C)[C@@H](CC[C@]5(C)[C@H]4C[C@@H](O)[C@@H]4C([C@@]6(C)CCCC(C)(C)O6)CC[C@]45C)C3(C)C)[nH]c(=O)c2C#N)cc1 (stereo partly drawn) | 6.88 µM | 5.09 µM | 9.45 µM | 76.3 µM |
| CC1(C)CCC[C@](C)([C@@H]2CC[C@]3(C)[C@@H]2[C@H](O)CC2[C@@]4(C)CC[C@H](OC(=O)CSc5nc(-c6ccc(Br)cc6)c(C#N)c(=O)[nH]5)C(C)(C)[C@@H]4CC[C@]23C)O1 (stereo partly drawn) | 7.51 µM | 5.91 µM | 9.72 µM | 77 µM |
| Cc1cccc(-c2nc(SCC(=O)O[C@H]3CC[C@@]4(C)[C@@H](CC[C@]5(C)[C@H]4C[C@@H](O)[C@@H]4[C@H]([C@@]6(C)CCCC(C)(C)O6)CC[C@]45C)C3(C)C)[nH]c(=O)c2C#N)c1 | 13.6 µM | 14.1 µM | 17 µM | 77.1 µM |
| CC1(C)CCC[C@](C)([C@@H]2CC[C@]3(C)[C@@H]2[C@H](O)C[C@H]2[C@@]4(C)CC[C@H](OC(=O)CSc5nc6c(Cl)cccc6c(=O)[nH]5)C(C)(C)[C@@H]4CC[C@]23C)O1 | > 100 µM | > 100 µM | 62.3 µM | > 100 µM |
| CC1(C)CCC[C@](C)(C2CC[C@]3(C)[C@@H]2[C@H](O)C[C@H]2[C@@]4(C)CC[C@H](OC(=O)CSc5nc(-c6c[nH]c7ccccc67)c(C#N)c(=O)[nH]5)C(C)(C)[C@@H]4CC[C@]23C)O1 (stereo partly drawn) | 7.17 µM | 5.21 µM | 10.8 µM | 76.1 µM |
| CC1(C)CCC[C@](C)([C@@H]2CC[C@]3(C)[C@@H]2[C@H](O)C[C@H]2[C@@]4(C)CC[C@H](OC(=O)CSc5nc6ccc([N+](=O)[O-])cc6c(=O)[nH]5)C(C)(C)[C@@H]4CC[C@]23C)O1 | > 100 µM | 59.8 µM | > 100 µM | > 100 µM |
| CC1(C)CCC[C@](C)([C@@H]2CC[C@]3(C)[C@@H]2[C@H](O)C[C@H]2[C@@]4(C)CC[C@H](OC(=O)CSc5nc(-c6cccc(O)c6)c(C#N)c(=O)[nH]5)C(C)(C)[C@@H]4CC[C@]23C)O1 | 14.3 µM | 9.35 µM | 20.8 µM | 78.5 µM |
| CC1(C)CCC[C@](C)([C@@H]2CC[C@]3(C)[C@@H]2[C@H](O)C[C@H]2[C@@]4(C)CC[C@H](OC(=O)CSc5nc(-c6ccncc6)c(C#N)c(=O)[nH]5)C(C)(C)[C@@H]4CC[C@]23C)O1 | 17.3 µM | 12.8 µM | 15.8 µM | 77.1 µM |
| CC1(C)CCC[C@](C)([C@@H]2CC[C@]3(C)[C@@H]2[C@H](O)CC2[C@@]4(C)CC[C@H](OC(=O)CSc5nc(-c6cccc(F)c6)c(C#N)c(=O)[nH]5)C(C)(C)[C@@H]4CC[C@]23C)O1 (stereo partly drawn) | 6.98 µM | 7.56 µM | 8.19 µM | 76 µM |
| CC1(C)CCC[C@](C)([C@@H]2CC[C@]3(C)[C@@H]2[C@H](O)C[C@@H]2[C@@]4(C)CC[C@H](OC(=O)CSc5nc(-c6ccccc6)c(C#N)c(=O)[nH]5)C(C)(C)[C@@H]4CC[C@]23C)O1 | 8.9 µM | 7.6 µM | 9.82 µM | 74.7 µM |
| CC1(C)CCC[C@](C)([C@@H]2CC[C@]3(C)[C@@H]2[C@H](O)CC2[C@@]4(C)CC[C@H](OC(=O)CSc5nc(-c6cccc(Br)c6)c(C#N)c(=O)[nH]5)C(C)(C)[C@@H]4CC[C@]23C)O1 (stereo partly drawn) | 6.69 µM | 5.95 µM | 6.53 µM | 70.3 µM |
| CC1(C)CCC[C@](C)([C@@H]2CC[C@]3(C)[C@@H]2[C@H](O)CC2[C@@]4(C)CC[C@H](OC(=O)CSc5nc(-c6ccc(Cl)cc6)c(C#N)c(=O)[nH]5)C(C)(C)[C@@H]4CC[C@]23C)O1 (stereo partly drawn) | 6.79 µM | 6.39 µM | 7.42 µM | 76.8 µM |
| COc1cc(-c2nc(SCC(=O)O[C@H]3CC[C@@]4(C)[C@@H](CC[C@]5(C)[C@H]4C[C@@H](O)[C@@H]4C([C@@]6(C)CCCC(C)(C)O6)CC[C@]45C)C3(C)C)[nH]c(=O)c2C#N)cc(OC)c1OC (stereo partly drawn) | 7.6 µM | 7.71 µM | 13.3 µM | 77.7 µM |
| CC1(C)CCC[C@](C)([C@@H]2CC[C@]3(C)[C@@H]2[C@H](O)C[C@H]2[C@@]4(C)CC[C@H](OC(=O)CSc5nc6ccc(Cl)cc6c(=O)[nH]5)C(C)(C)[C@@H]4CC[C@]23C)O1 | > 100 µM | 80.5 µM | > 100 µM | > 100 µM |
| CC1(C)CCC[C@](C)([C@@H]2CC[C@]3(C)[C@@H]2[C@H](O)C[C@H]2[C@@]4(C)CC[C@H](OC(=O)CSc5nc6ccc(Br)cc6c(=O)[nH]5)C(C)(C)[C@@H]4CC[C@]23C)O1 | > 100 µM | > 100 µM | > 100 µM | > 100 µM |
| CC1(C)CCC[C@](C)([C@@H]2CC[C@]3(C)[C@@H]2[C@H](O)CC2[C@@]4(C)CC[C@H](OC(=O)CSc5nc(-c6ccc(F)cc6)c(C#N)c(=O)[nH]5)C(C)(C)[C@@H]4CC[C@]23C)O1 (stereo partly drawn) | 9.09 µM | 7.75 µM | 7.82 µM | 76 µM |
| CC1(C)CCC[C@](C)([C@@H]2CC[C@]3(C)[C@@H]2[C@H](O)C[C@H]2[C@@]4(C)CC[C@H](OC(=O)CSc5nc6cc(Cl)ccc6c(=O)[nH]5)C(C)(C)[C@@H]4CC[C@]23C)O1 | > 100 µM | > 100 µM | > 100 µM | > 100 µM |
| COc1cccc(-c2nc(SCC(=O)O[C@H]3CC[C@]4(C)[C@H]5C[C@@H](O)[C@@H]6[C@H]([C@@]7(C)CCCC(C)(C)O7)CC[C@@]6(C)[C@]5(C)CC[C@H]4C3(C)C)[nH]c(=O)c2C#N)c1 | 6.84 µM | 6.85 µM | 8.98 µM | 64.5 µM |
| CC1(C)CCC[C@](C)([C@@H]2CC[C@]3(C)[C@@H]2[C@H](O)C[C@H]2[C@@]4(C)CC[C@H](OC(=O)CSc5nc6cccc(Cl)c6c(=O)[nH]5)C(C)(C)[C@@H]4CC[C@]23C)O1 | 83 µM | 67.8 µM | > 100 µM | > 100 µM |
| CC1(C)CCC[C@](C)([C@@H]2CC[C@]3(C)[C@@H]2[C@H](O)C[C@H]2[C@@]4(C)CC[C@H](OC(=O)CSc5nc6ccc(F)cc6c(=O)[nH]5)C(C)(C)[C@@H]4CC[C@]23C)O1 | 56.6 µM | 70.5 µM | > 100 µM | > 100 µM |
| CC1(C)CCC[C@](C)([C@@H]2CC[C@]3(C)[C@@H]2[C@H](O)CC2[C@@]4(C)CC[C@H](OC(=O)CSc5nc(-c6cccc(Cl)c6)c(C#N)c(=O)[nH]5)C(C)(C)[C@@H]4CC[C@]23C)O1 (stereo partly drawn) | 7.14 µM | 7.09 µM | 8.44 µM | 74.9 µM |
